Literature values, collected in patent US7960544B2, “Useful indole compounds” (Ironwood Pharmaceuticals, Inc., priority 2005, dated 2011).

Experiments:
CCR3 = conditions: cross-desensitization
DAO = DAO (Homo sapiens, UniProt P14920)
MCF-7 cells = conditions: up to 100 μM

Sequence of DAO (P14920 whole entry): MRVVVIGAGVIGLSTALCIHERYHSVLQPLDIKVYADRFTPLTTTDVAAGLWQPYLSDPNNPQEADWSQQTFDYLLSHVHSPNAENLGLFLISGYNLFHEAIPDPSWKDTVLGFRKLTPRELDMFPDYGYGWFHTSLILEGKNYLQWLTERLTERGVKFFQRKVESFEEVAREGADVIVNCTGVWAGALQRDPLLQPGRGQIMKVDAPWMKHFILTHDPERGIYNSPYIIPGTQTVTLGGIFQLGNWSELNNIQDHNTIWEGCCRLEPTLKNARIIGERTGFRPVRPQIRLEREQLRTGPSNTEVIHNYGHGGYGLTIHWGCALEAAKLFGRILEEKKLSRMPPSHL

Cc1c(CC(=O)O)c2cc(O)ccc2n1C(=O)c1ccc(Cl)cc1 [desmethyl metabolite, (1-(4-chlorobenzoyl)-5-hydroxy-2-methyl-1H-indol-3-yl]acetic acid]
ability to inhibit prostaglandin synthesis (prostaglandin synthesis): has some ability to inhibit prostaglandin synthesis

COc1ccc2c(c1)c(CC(=O)O)c(C)n2C(=O)c1ccc(Cl)cc1 [indomethacin]
expression of CCR3, the receptor for eotaxin (CCR3): reduces expression of CCR3
inhibition of DAO (DAO): inhibitor of DAO

CCCCC/C=C\C/C=C\C/C=C\C/C=C\CCCC(=O)NCCO [anandamide]
cell viability (as assessed by trypan blue) (MCF-7 cells): No significant decrease in cell viability
